PMC4833520 (Bioorganic & medicinal chemistry, 2016)

How the values were obtained:
σ1 receptor = σ1 receptor (Cavia porcellus, UniProt Q60492); assay: PDSP radioligand binding, σ1 receptor
[1] = target: human dopamine D1 receptor (Homo sapiens, UniProt P21728); assay: PDSP radioligand binding, dopamine D1 receptor; details: ratio of Ki values
human dopamine D1 receptor, sequence (P21728 whole entry): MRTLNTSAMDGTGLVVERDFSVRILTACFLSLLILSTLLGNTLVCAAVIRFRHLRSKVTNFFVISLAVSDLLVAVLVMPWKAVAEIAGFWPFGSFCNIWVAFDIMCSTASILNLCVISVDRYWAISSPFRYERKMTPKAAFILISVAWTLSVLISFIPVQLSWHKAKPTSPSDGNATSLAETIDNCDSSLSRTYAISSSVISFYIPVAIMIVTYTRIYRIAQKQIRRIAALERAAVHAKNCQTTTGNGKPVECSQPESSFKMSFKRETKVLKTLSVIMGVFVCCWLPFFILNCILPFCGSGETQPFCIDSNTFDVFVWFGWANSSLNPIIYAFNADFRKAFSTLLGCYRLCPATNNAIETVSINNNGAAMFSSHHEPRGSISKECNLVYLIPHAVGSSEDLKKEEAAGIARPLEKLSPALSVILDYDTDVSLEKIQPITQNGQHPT

σ1 receptor, sequence (Q60492 whole entry): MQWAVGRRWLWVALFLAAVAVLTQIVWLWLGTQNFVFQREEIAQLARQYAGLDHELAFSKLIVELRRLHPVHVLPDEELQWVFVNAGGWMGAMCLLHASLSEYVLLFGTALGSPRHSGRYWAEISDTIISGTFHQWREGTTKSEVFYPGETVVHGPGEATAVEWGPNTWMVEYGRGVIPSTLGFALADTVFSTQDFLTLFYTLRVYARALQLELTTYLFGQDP

| selectivity for σ1 versus σ2 receptors (σ1 receptor) | Selectivity D3/D1 [1] | Compound |
| --- | --- | --- |
| approximately 3 fold |  | CCCCCCOc1ccc2c(c1OC)CN1CCc3cc(OC)c(O)cc3C1C2 (centres unmarked) [Compound 15, 10-(Hexyloxy)-3,9-dimethoxy-5,8,13,13a-tetrahydro-6H-isoquinolino[3,2-a]isoquinolin-2-ol] |
|  | 16 | COc1cc2c(cc1O)C1Cc3ccc(OCCCO)c(OC)c3CN1CC2 (centres unmarked) [Compound 16, 10-(3-Hydroxypropoxy)-3,9-dimethoxy-5,8,13,13a-tetrahydro-6H-isoquinolino[3,2-a]isoquinolin-2-ol] |
